Details: Liquid, Buoyancy - hydrostatic balance

CCc1ccccc1 [ethylbenzene]
mass density [kg/m3]
Details | 292.25 K | 313.45 K | 336.55 K | 358.81 K | 382.95 K | 408.05 K | 434.45 K | 461.85 K | 490.15 K
100 kPa | 867 | 849.1 | 828.7 | 808.4 | – | – | – | – | –
5000 kPa | 870.8 | 853.1 | 833.6 | 814.5 | 793 | 770.4 | 746 | 718.6 | 687
9900 kPa | 874 | – | 838.5 | 820 | 799 | 777.3 | 754.4 | 728.8 | 700
19700 kPa | 881.3 | 864.4 | 845.8 | 827.6 | 808.1 | 788.5 | 768.1 | 746.2 | 720.9
29500 kPa | 887.1 | 871.4 | 854 | 836.8 | 818.2 | 799.7 | 780.5 | 760 | 737.2
39300 kPa | 893 | 877.6 | 860.9 | 844.8 | 827.1 | 809.5 | 791 | 771.7 | 750.7
49100 kPa | 898.5 | 883.6 | 867.8 | 852.4 | 835.1 | 817.9 | 800.4 | 782.3 | 762.9
58900 kPa | 903.8 | 889.4 | 873.6 | 858.6 | 842.5 | 826 | 808.6 | 791 | 773.2

CO [methanol]
mass density [kg/m3]
Details | 298.15 K | 323.15 K | 348.15 K | 373.15 K | 398.15 K | 423.15 K | 448.15 K | 473.15 K | 498.15 K
100 kPa | 792.6 | 770.3 | – | – | – | – | – | – | –
5000 kPa | 796.2 | 774.2 | 748.9 | 721.1 | 690 | 652.8 | 610.4 | 553.4 | –
9900 kPa | 801 | 778.2 | 753.9 | 727.7 | 697.6 | 665.2 | 628.9 | 585 | 525
19700 kPa | 808.4 | 787 | 764.1 | 739.3 | 712.8 | 683.6 | 652.4 | 620.2 | 584.8
29500 kPa | 816 | 795 | 773.1 | 750.4 | 725.4 | 698.8 | 670.8 | 642 | 613.4
39300 kPa | 823.8 | 803.4 | 782.6 | 760.2 | 736 | 710.8 | 685.6 | 660.6 | 636
49100 kPa | 830 | 811 | 790.9 | 769.6 | 747.2 | 723.9 | 700 | 677.2 | 655
58900 kPa | 836.3 | 818.2 | 798.9 | 778.2 | 757 | 735 | 713 | 691.2 | 670
